Measurements as given in paper PMC7221699, “Synthesis and Cytotoxic Analysis of Novel Myrtenyl Grafted Pseudo-Peptides Revealed Potential Candidates for Anticancer Therapy” (Molecules, 2020).

Key:
[1] = test system: human gastric adenocarcinoma (AGS) cells; assay: Sulforhodamine B (SRB) cell cytotoxicity assay, AGS cells; format: cell-based; details: for viability at 0.24 µg/mL / EC50: Homo sapiens; for viability at 0.24 µg/mL: AGS, 240 ng/mL, Figure 2, read-out: viability (%) in the AGS screen; for viability at 0.24 µg/mL / cytotoxicity against AGS cells at the lowest concentration: 24 h; for cytotoxicity to AGS cells (preliminary screen): 60, 120 and 240 ng/mL, 24 h of incubation; for cytotoxicity against AGS cells at the lowest concentration: 60 ng/mL; for Emax / EC50: AGS cells; for Emax: maximal drug effect on viability rate, 1 = no effect, 0 = fully cytotoxic; for EC50: 24 h of drug treatment, SRB assay
Method: (§1) […] The cell lines were expanded, cultured, and maintained at 37 °C in a humid atmosphere with 5% CO2 in modified Dulbecco’s medium (Thermo Fisher Scientific, Waltham, MA, USA), with 10% FBS (Thermo Fisher Scientific, Waltham, MA, USA) and 100 U/mL of the antibiotic mixture penicillin/streptomycin (Thermo Fisher Scientific, Waltham, MA, USA).
(§2) We evaluated the cytotoxicity effects of novel Myrtenal hybrids against on cells by the sulforhodamine B (SRB) assay. Initially, the cells were seeded in 96-well microplates at a density of 2 × 10^4 cells/well. All compounds were initially dissolved in 100% of methanol and prediluted to reduce methanol concentration to 1% or lower in culture medium and added to the cells at different concentrations for 24 h. Then, cells were fixed by adding 10% (w/v) trichloroacetic acid (TCA) (Winkler) in each well and were stained with 0.057% (w/v) Sulforhodamine B (SRB) (Sigma-Aldrich) in 1% (v/v) acetic acid (Winkler). The bound dye was dissolved in 10 mM Tris base (Sigma-Aldrich), and the absorbance was determined at 510 nm using a multiplate reader (Synergy 2, Biotek Instruments). Percentage cell viability was determined using the formula: […]. The absorbance from the wells of the negative control (1% methanol in culture medium) was considered as the 100% viability. EC50 values were determined by regression analysis (R^2 > 0.95) of the corresponding dose response curves of percentage of cell viability and concentration of the compounds. Emax, the maximum effect of the drug at the highest tested concentration were determined using an online calculator (http://www.grcalculator.org/). Emax lies between 1 and 0; a value of 0 corresponds to a fully cytotoxic response.

[2] = test system: human dermal fibroblast (HDF) cells; assay: Sulforhodamine B (SRB) cell cytotoxicity assay, HDF non-cancer cells; format: cell-based; details: 60, 120 and 240 ng/mL, 24 h
Method: as §1, §2

[3] = test system: human breast adenocarcinoma (MCF-7) cells; assay: Sulforhodamine B (SRB) cell cytotoxicity assay, MCF-7 cells; format: cell-based; details: for EC50: Homo sapiens, MCF7, 24 h of drug treatment, SRB assay; for Emax: maximal drug effect on viability rate, 1 = no effect, 0 = fully cytotoxic
Method: as §1, §2

[4] = test system: human colon adenocarcinoma (HT-29) cells; assay: Sulforhodamine B (SRB) cell cytotoxicity assay, HT-29 cells; format: cell-based; details: HT29 cells; for Emax: maximal drug effect on viability rate, 1 = no effect, 0 = fully cytotoxic; for EC50: Homo sapiens, HT-29, 24 h of drug treatment, SRB assay
Method: as §1, §2

primary CD4+ T cells = assay: Viability and cell count of activated CD4+ T lymphocytes per proliferation cycle (flow cytometry); format: cell-based, human; details: compounds added at EC25 48 h after activation, incubated four days; for viability of non-proliferating CD4+ T cells: cycle 0 and 1; for viability / number of proliferating CD4+ T cells: cycle 2, 3 and 4
Method: CD4+ T cells were first stained with a cell tracer dye, a fluorescent reagent that diffuses into cells and binds covalently to intracellular amines, and then with a Live/Dead dye that permeates into cells with damaged membranes, while live cells remain unstained. In addition, counting beads were added into each sample to calculate the exact number of cells per cell cycle (Figure 4A). Then, in order to induce proliferation, fluorescent-labelled CD4+ T cells were activated with anti-CD3/CD28 beads, which mimic physiological T cell receptor triggering and co-stimulation in T lymphocytes. After activation, a proportion of cells proliferated, while some stayed in a non-proliferative state. […] Myrtenyl derivatives were added after the second day of culture to evaluate their effect on non-proliferating CD4+ T cells at cycle 0 and 1 and in proliferating cells in cycle 2, 3, and 4. Live CD4+ T cells activated in the presence of five Myrtenyl derivatives were counted and results were normalized with the control sample per cell cycle.
CD4+ T cells were obtained from peripheral blood from healthy volunteers. Blood samples were diluted 1:2 with PBS before adding 50 μL/mL of RosettSep Human CD4+ T cell enrichment cocktail (STEM CELL) for 20 min at room temperature. After incubation, samples were diluted again 1:4 with PBS and CD4+ T cells were obtained directly from the mononuclear fraction obtained after Ficoll–Hypaque density gradient centrifugation. CD4+ T cells were washed twice, counted, and resuspended in PBS. CD4+ T cells were then stained with 1 μM Cell Trace Violet Cell Proliferation Kit (Invitrogen, Thermo Fisher Scientific, Waltham, MA, USA) for 20 min at 37 °C, protected from light. Unbound dye was quenched by adding cold FCS for 5 min at 4 °C. CD4+ T cells were washed two times and resuspended in X–VIVO (Gibco) with IL–2 (50 U/mL, ProLeukin). Cells (2 × 10^5) were activated for 48 h with CD3/CD28 Dynabeads (Invitrogen) prior to adding the compounds. After 48 h, compounds were added (EC25) and incubated for four days. To analyze proliferation and viability, cells were stained with Live/Dead fixable far red dead cell staining kit (Invitrogen) for 30 min at 4 °C and counting beads were added before acquisition. Cells were acquired on an LSRFortessa X20 (BD) within 24 h. Data were analyzed using FlowJo (Tree Star, Inc., Ashland, OR, USA).

[5] = test system: AGS, MCF-7 and HT-29 cells; assay: SRB cytotoxicity assay, summary over the three cancer cell lines; format: cell-based; details: Homo sapiens, MCF-7 and HT-29, 24 h, read-out: EC50 range over the cancer cell lines
Method: as §1
as §2, with “All compounds were initially dissolved in 100% of methanol and prediluted to reduce methanol concentration to 1% or lower in culture medium and added to the cells at different concentrations for 24 h. Then, cells were fixed by adding 10% (w/v) trichloroacetic acid (TCA) (Winkler) in each well and were stained with 0.057% (w/v) Sulforhodamine B (SRB) (Sigma-Aldrich) in 1% (v/v) acetic acid (Winkler).” left out, “Emax lies between 1 and 0; a value of 0 corresponds to a fully cytotoxic response.” left out

SMILES	viability at 0.24 µg/mL [1]	cytotoxicity to AGS cells (preliminary screen) [1]	cytotoxicity against AGS cells at the lowest concentration [1]	Emax [1]	EC50 [1]	effect on HDF viability (preliminary screen) [2]	EC50 [3]	Emax [3]	Emax [4]	EC50 [4]	viability of non-proliferating CD4+ T cells at cycle 0 (primary CD4+ T cells)	viability of non-proliferating CD4+ T cells (primary CD4+ T cells)	viability / number of proliferating CD4+ T cells (primary CD4+ T cells)	viability of proliferating CD4+ T cells at cycle 4 (primary CD4+ T cells; cycle 4)	EC50 [5]
C#CCN(C(C)=O)C(C(=O)NC1CCCCC1)C1=CC[C@H]2C[C@@H]1C2(C)C (mixture of isomers) [1c, N-cyclohexyl-2-((1R,5S)-6,6-dimethylbicyclo[3.1.1]hept-2-en-2-yl)-2-(N-(prop-2-yn-1-yl)acetamido) acetamide]	40%														
CC(=O)N(CC#CC#CCN(C(C)=O)C(C(=O)NC1CCCCC1)C1=CC[C@H]2C[C@@H]1C2(C)C)C(C(=O)NC1CCCCC1)C1=CC[C@H]2C[C@@H]1C2(C)C (mixture of isomers) [4b, 2,2′-[hexa-2,4-diyne-1,6-diylbis(acetylazanediyl)]-bis[N-cyclohexyl-2-((1R,5S)-6,6-dimethylbicyclo[3.1.1]hept-2-en-2-yl)acetamide]]		not cytotoxic													
CC(=O)N(Cc1ccccc1)C(C(=O)NC1CCCCC1)C1=CC[C@H]2C[C@@H]1C2(C)C (stereo partly drawn) [1a, 2-(N-benzylacetamido)-N-cyclohexyl-2-((1R,5S)-6,6-dimethylbicyclo[3.1.1]hept-2-en-2-yl)acetamide]			high cytotoxicity	0.1	46 nM	without affecting HDF viability	65 nM	0.1	0.1	68 nM	more cytotoxic than 3c	reduced viability	reduced viability		
C#CCN(CC(=O)NC1CCCCC1)C(=O)C1=CC[C@H]2C[C@@H]1C2(C)C [2c, (1R,5S)-N-[2-(cyclohexylamino)-2-oxoethyl]-6,6-dimethyl-N-(prop-2-yn-1-yl)bicyclo[3.1.1]hept-2-ene-2-carboxamide]	60%														
Cc1ccc(-n2cc(CN(CC(=O)NC3CCCCC3)C(=O)C3=CC[C@H]4C[C@@H]3C4(C)C)nn2)cc1 [3a, (1R,5S)-N-[2-(cyclohexylamino)-2-oxoethyl]-6,6-dimethyl-N-{[1-(p-tolyl)-1H-1,2,3-triazol-4-yl]methyl} bicyclo[3.1.1]hept-2-ene-2-carboxamide]			high cytotoxicity	0.1	50 nM	without affecting HDF viability	24 nM	0.3	0.3	59 nM	more cytotoxic than 3c	reduced viability	reduced viability		
CC1(C)[C@H]2CC=C(C(=O)N(CC(=O)NC3CCCCC3)Cc3cn(-c4cccc(Cl)c4)nn3)[C@@H]1C2 [3b, (1R,5S)-N-{[1-(3-chlorophenyl)-1H-1,2,3-triazol-4-yl]methyl}-N-[2-(cyclohexylamino)-2-oxoethyl]-6,6-dimethylbicyclo[3.1.1]hept-2-ene-2-carboxamide]			high cytotoxicity	0.2	49 ± 8 nM	without affecting HDF viability	24 ± 7 nM	0.5	0.4	21 ± 7 nM		did not reduce viability	able to reduce number of proliferating cells		
COc1ccc(-n2cc(CN(CC(=O)NC3CCCCC3)C(=O)C3=CC[C@H]4C[C@@H]3C4(C)C)nn2)cc1 [3c, (1R,5S)-N-[2-(cyclohexylamino)-2-oxoethyl]-N-{[1-(4-methoxyphenyl)-1H-1,2,3-triazol-4-yl]methyl}-6,6-dimethylbicyclo[3.1.1]hept-2-ene-2-carboxamide]			high cytotoxicity	0.1	75 nM	without affecting HDF viability	38 nM	0.4	0.4	38 nM		reduced viability	reduced viability		
CC1(C)[C@H]2CC=C(Cn3cc(CN(CC(=O)NC4CCCCC4)C(=O)C4=CC[C@H]5C[C@@H]4C5(C)C)nn3)[C@@H]1C2 [3d, (1R,5S)-N-[2-(cyclohexylamino)-2-oxoethyl]-N-({1-[((1R,5S)-6,6-dimethylbicyclo[3.1.1]hept-2-en-2-yl)methyl]-1H-1,2,3-triazol-4-yl}methyl)-6,6-dimethylbicyclo[3.1.1]hept-2-ene-2-carboxamide]			high cytotoxicity	0.1	33 nM	without affecting HDF viability	22 nM	0.1	0.1	33 nM	did not reduced viability			lowest capacity to reduce viability	22 to 33 nM
CC(=O)OC[C@@H]1O[C@H](n2cc(CN(CC(=O)NC3CCCCC3)C(=O)C3=CC[C@H]4C[C@@H]3C4(C)C)nn2)[C@@H](OC(C)=O)[C@H](OC(C)=O)[C@H]1OC(C)=O [3e, (2S,3S,4R,5S,6S)-2-(acetoxymethyl)-6-[4-({(1R,5S)-N-[2-(cyclohexylamino)-2-oxoethyl]-6,6-dimethylbicyclo [3.1.1]hept-2-ene-2-carboxamido}methyl)-1H-1,2,3-triazol-1-yl]tetrahydro-2H-pyran-3,4,5-triyl triacetate]			low activity												
CC1(C)[C@H]2CC=C(C(=O)N(CC#CC#CCN(CC(=O)NC3CCCCC3)C(=O)C3=CC[C@H]4C[C@@H]3C4(C)C)CC(=O)NC3CCCCC3)[C@@H]1C2 [4a, (1R,1′R,5S,5′S)-N,N′-(hexa-2,4-diyne-1,6-diyl)-bis{N-[2-(cyclohexylamino)-2-oxoethyl]-6,6-dimethylbicyclo [3.1.1]hept-2-ene-2-carboxamide}]		not cytotoxic													
